US5686492A, “Disubstituted p-fluorobenzenesulfonamides” (Schering Aktiengesellschaft, priority 1994, dated 1997)

Key:
[1] = 19F NMR line width / signal intensity of the measuring fluorine atom; format: physicochemical; conditions: in comparison to prior art compound (compound of Example 2 with Y meaning hydrogen); for line width smaller by: signal of the measuring fluorine atom
Description: In comparison to the structurally closest compounds of the prior art, the compounds according to the invention show clearly thinner signals for the measuring fluorine atom, so that an identically intensive signal is obtained with a smaller dosage.

[2] = compatibility in comparison to structurally closest previously-known compound; format: in vivo; conditions: than structurally closest previously-known compound (compound of Example 2 with Y meaning hydrogen)
Description: (§1) An equally high (undesirable) histamine release is observed with the compound of Example 2 only with the 30-fold dosage of the above-mentioned previously-known comparison substance.

histamine release = histamine release in comparison to structurally closest previously-known compound; format: in vivo; conditions: multiple of the dosage of the previously-known comparison substance (compound of Example 2 with Y meaning hydrogen)
Description: as §1

| line width smaller by [1] | compatibility higher by [2] | dosage giving equally high (undesirable) histamine release (histamine release) | signal increase [1] | SMILES |
| --- | --- | --- | --- | --- |
| 12% | 50% | 30 -fold | – | O=C(O)CCS(=O)(=O)Nc1ccc(F)c(CC(=O)NC(CO)C(O)CO)c1C(F)(F)F (centres unmarked) [Example 2, 3-{N-[4-Fluoro-2-trifluoromethylphenyl-3-acetic acid-N-(1-hydroxy-2,3-dihydroxypropyl)-amide]-sulfamoyl}-propionic acid] |
| 25% | – | – | ~50% | O=C(Cc1cc(NS(=O)(=O)CC(F)(F)F)cc(CC(=O)NC(CO)C(O)CO)c1F)NC(CO)C(O)CO (centres unmarked) [Example 6] |
